Laboratory results published in patent US8592428B2 (MSD K. K., priority 2008, dated 2013).
pEC50: −log10 of the molar value. In brackets after ≈: the same amount, converted by molar mass.

Key:
[1] = Solubility in water by solution precipitation method (HPLC); format: physicochemical; details: water (2% DMSO), kinetic from dmso stock, from 10 mM DMSO solution, 60 minutes stirring at room temperature, compounds of the present invention
Description: For solubility in water, the solubility of a compound in water was determined by a solution precipitation method.
For an HPLC system, Agilent HPLC 1100 system was used. […] For a shaker, Microincubator M-36 (Taitec) was used. For a plate, a 96-deep well plate (Nunc. 260252) was used. For a well cap, Pre-Slit Well Cap for 96 Well PP (NALGENE. 276011) was used. For a filtration plate, MultiScreen Solubility (Millipore; MSSLBPC10) was used. For dispensation, an 8-channel electronic multipipette, Biohit Proline (Biohit), and a 96-well automatic pipetting device, Biomeck 2000 (Biomeck) were used. For a reagent used, a pure solvent for DMSO ultraviolet absorption spectrum (Dojindo 349-01025) and water (MiliQ water, manufactured by Millipore).
For a DMSO solution, a sample was prepared with DMSO to be precisely 10 mM.
Precise dispensation of 10 μL of a DMSO solution into each well of a 96-well plate was performed. Following addition of 490 μL of water to each of the wells and plate-sealing with 96-well Cap (Agilent No. 5042-1389), intense stirring processing of the plate was performed for 60 minutes at room temperature on a shaker. Subsequently, 200 μL of a treatment sample was added to a plate for centrifugal filtration, and centrifugal filtration of the sample was performed to obtain a filtrate. A sample solution was made by adding 200 μl, of a 50% aqueous acetonitrile solution to the provided filtrate.
Precise dispensation of 10 μL of a DMSO solution into each well of a 96-well plate was performed.
Detection was performed using a multi-wavelength detector (190-370 nm). For a column, the above-mentioned column was used at 40° C. A flow rate was set at 1.2 ml/min, and an amount of an injected sample at 20 μL. For a moving phase, a 0.1% aqueous phosphoric acid solution as a liquid A and acetonitrile as a liquid B were used to carry out analyses in accordance with a time schedule described below.
For the analyses, the data of UV 275 nm were adopted. […] Using the calibration curve, regression calculation of concentrations in water was carried out from Area of sample solutions (water).

[2] = target: T1, recombinant human liver GK (Homo sapiens, UniProt P35557); assay: Glucokinase-activating effect (Thio-NADH coupled G6PDH assay); format: biochemical; details: final glucose concentration 2.5 mM, 30° C.; for Emax: OD level of DMSO control = 100%
T1 construct: made in house; host or cells: E. coli
T1 sequence (P35557 1-466 isoform P35557-2): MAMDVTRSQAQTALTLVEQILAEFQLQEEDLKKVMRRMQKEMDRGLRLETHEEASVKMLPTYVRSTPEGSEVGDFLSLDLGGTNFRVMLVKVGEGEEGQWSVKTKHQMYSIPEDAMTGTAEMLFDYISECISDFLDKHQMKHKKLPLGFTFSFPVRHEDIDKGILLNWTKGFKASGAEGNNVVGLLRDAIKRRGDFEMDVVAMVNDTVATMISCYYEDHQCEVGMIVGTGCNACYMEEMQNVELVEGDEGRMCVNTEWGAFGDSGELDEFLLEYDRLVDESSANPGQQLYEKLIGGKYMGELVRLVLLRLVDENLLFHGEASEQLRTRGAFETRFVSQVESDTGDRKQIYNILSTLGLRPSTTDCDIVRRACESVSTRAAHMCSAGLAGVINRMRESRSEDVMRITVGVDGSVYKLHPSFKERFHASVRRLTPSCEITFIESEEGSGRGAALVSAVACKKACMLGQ
Description: The excellent glucokinase-activating effect of the compounds of formula (I) may be determined by a method described in literature (for example, Diabetes, Vol. 45, pp. 1671-1677, 1996), or in accordance with it.
The glucokinase activity may be determined not by directly measuring glucose-6-phosphate but by measuring the level of Thio-NADH, which is produced when a reporter enzyme, glucose-6-phosphate dehydrogenase produces phosphogluconolactone from glucose-6-phosphate, and based on the level, the degree of glucokinase activation by the compound tested may be determined.
In this assay, used was a recombinant human liver GK, which was expressed by E. coli as a FLAG fusion protein therein and was purified by […] M2 AFFINITY GEL (Sigma).
Using a flat-bottomed 96-well plate, the assay was carried out at 30° C. 69 μl of an assay buffer (25 mM Hepes Buffer/pH=7.2, 2 mM MgCl2, 1 mM ATP, 0.5 mM TNAD, 1 mM dithiothreitol) was put into the plate, and 1 μl of a DMSO solution of the compound or DMSO alone as a control was added thereto. Next, 20 μl of an enzyme mixture (FLAG-GK, 20 U/ml G6PDH) cooled in ice was added to it, and 10 μl of a substrate, 25 mM glucose was added to it, and the reaction was initiated (final glucose concentration=2.5 mM).
After the start of the reaction, the increase in the absorbance at 405 nm was measured for 12 minutes at intervals of 30 seconds, and the increase for the first 5 minutes was used for assessing the compound tested. FLAG-GK was added so that the absorbance increase after 5 minutes in the presence of 1% DMSO could be from 0.04 to 0.06.
The OD level of the DMSO control was set as 100%; and the OD level of the test compound at different concentrations was determined. From the OD level at each concentration, Emax (%) and EC50 (μM) were computed and used as the index of the GK-activating potency of the compound.

With `CC(=O)N1CCC[C@@H]1c1cc2[nH]c(-c3ccc(CO)cn3)cc2cc1Oc1ccc(C(=O)N2CCC2)nc1` [Example 23, 6-[(R)-1-acetylpyrrolidin-2-yl]-5-[6-(azetidin-1-ylcarbonyl)pyridin-3-yloxy]-2-(5-hydroxymethylpyridin-2-yl)-1H-indole] the solubility at 60 min [1] was 77.6 µM (≈ 39.7 µg/mL).

For `CC(=O)N1CCC[C@@H]1c1cc2[nH]c(-c3cnccn3)cc2cc1Oc1ccc(C(=O)N(C)CCO)nc1` [Example 28], the pEC50 [2] was 7.00 and the solubility at 60 min [1] was greater than 170 µM.

Compound `CNC(=O)c1ccc(-c2cc3cc(Oc4ccc(S(C)(=O)=O)nc4)c([C@H]4CCCN4C(C)=O)cc3[nH]2)nc1` [Example 5, 6-[(R)-1-acetylpyrrolidin-2-yl]-2-[5-(N-methylcarbamoyl)pyridin-2-yl]-5-(6-methylsulfonylpyridin-3-yloxy)-1H-indole] has a solubility at 60 min [1] of 112 µM (≈ 59.5 µg/mL).

Work on `CC(=O)N1CCC[C@@H]1c1cc2[nH]c(-c3cnc(C)cn3)cc2cc1Oc1ccc(CO)nc1` [Example 7, 6-[(R)-1-acetylpyrrolidin-2-yl]-5-(6-hydroxymethylpyridin-3-yloxy)-2-(5-methylpyrazin-2-yl)-1H-indole] yielded a pEC50 [2] of 6.92 and a solubility at 60 min [1] greater than 170 µM.

Compound `COCc1ccc(Oc2cc3cc(-c4ccc(CO)cn4)[nH]c3cc2[C@H]2CCCN2C(C)=O)cn1` [Example 15, 6-[(R)-1-acetylpyrrolidin-2-yl]-2-(5-hydroxymethylpyridin-2-yl)-5-(6-methoxymethylpyridin-3-yloxy)-1H-indole] has an Emax [2] of 849%, a pEC50 [2] of 6.89 and a solubility at 60 min [1] of 168 µM (≈ 79.4 µg/mL).

`CC(=O)N1CCC[C@@H]1c1cc2[nH]c(-c3cnc(CO)cn3)cc2cc1Oc1ccc(OCCO)nc1` [Example 14, 6-[(R)-1-acetylpyrrolidin-2-yl]-5-[6-(2-hydroxyethoxy)pyridin-3-yloxy]-2-(5-hydroxymethylpyrazin-2-yl)-1H-indole] showed a solubility at 60 min [1] greater than 170 µM.

Work on `CC(=O)N1CCC[C@@H]1c1cc2[nH]c(-c3cnccn3)cc2cc1Oc1ccc(C(=O)N(C)C)nc1` [Example 25, 6-[(R)-1-acetylpyrrolidin-2-yl]-5-[6-(N,N-dimethylcarbamoyl)pyridin-3-yloxy]-2-(pyrazin-2-yl)-1H-indole] yielded a solubility at 60 min [1] greater than 170 µM.

With `CC(=O)N1CCC[C@@H]1c1cc2[nH]c(-c3cnccn3)cc2cc1Oc1ccc(CCO)nc1` [Example 19, 6-[(R)-1-acetylpyrrolidin-2-yl]-5-[6-(2-hydroxyethyl)pyridin-3-yloxy]-2-(pyrazin-2-yl)-1H-indole] the solubility at 60 min [1] was greater than 170 µM.

`CC(=O)N1CCC[C@@H]1c1cc2[nH]c(-c3cnccn3)cc2cc1Oc1ccc(C(=O)N2CCC2)nc1` [Example 20, 6-[(R)-1-acetylpyrrolidin-2-yl]-5-[6-(azetidin-1-ylcarbonyl)pyridin-3-yloxy]-2-(pyrazin-2-yl)-1H-indole] gave a solubility at 60 min [1] of 122 µM (≈ 59.1 µg/mL).

For `CC(=O)N1CCC[C@@H]1c1cc2[nH]c(-c3ccc(C(C)(C)O)cn3)cc2cc1Oc1ccc(S(C)(=O)=O)nc1` [Example 9, 6-[(R)-1-acetylpyrrolidin-2-yl]-2-[5-(1,1-dimethylhydroxymethyl)pyridin-2-yl]-5-(6-methylsulfonylpyridin-3-yloxy)-1H-indole], the pEC50 [2] was 6.89 and the solubility at 60 min [1] was 152 µM (≈ 81.2 µg/mL).

With `COCc1ccc(Oc2cc3cc(-c4cnccn4)[nH]c3cc2[C@H]2CCCN2C(C)=O)cn1` [Example 17, 6-[(R)-1-acetylpyrrolidin-2-yl]-5-(6-methoxymethylpyridin-3-yloxy)-2-(pyrazin-2-yl)-1H-indole] the Emax [2] was 988%, the pEC50 [2] was 7.10 and the solubility at 60 min [1] was greater than 170 µM.

Compound `CCNC(=O)c1ccc(Oc2cc3cc(-c4cnccn4)[nH]c3cc2[C@H]2CCCN2C(C)=O)cn1` [Example 26, 6-[(R)-1-acetylpyrrolidin-2-yl]-5-[6-(N-ethylcarbamoyl)pyridin-3-yloxy]-2-(pyrazin-2-yl)-1H-indole] has an Emax [2] of 942%, a pEC50 [2] of 6.80 and a solubility at 60 min [1] of 129 µM (≈ 60.7 µg/mL).

With `CC(=O)N1CCC[C@@H]1c1cc2[nH]c(-c3cnc(C(C)(C)O)cn3)cc2cc1Oc1ccc(S(C)(=O)=O)nc1` [Example 22, 6-[(R)-1-acetylpyrrolidin-2-yl]-2-[5-(1,1-dimethylhydroxymethyl)pyrazin-2-yl]-5-(6-methylsulfonylpyridin-3-yloxy)-1H-indole] the solubility at 60 min [1] was greater than 170 µM.

In the case of `CC(=O)N1CCC[C@@H]1c1cc2[nH]c(-c3cnccn3)cc2cc1Oc1ccc(OCCO)nc1` [Example 12, 6-[(R)-1-acetylpyrrolidin-2-yl]-5-[6-(2-hydroxyethoxy)pyridin-3-yloxy]-2-(pyrazin-2-yl)-1H-indole], the solubility at 60 min [1] was 128 µM (≈ 58.8 µg/mL).

`CC(=O)N1CCC[C@@H]1c1cc2[nH]c(-c3cnc(C(C)(C)O)cn3)cc2cc1Oc1ccc(C(=O)N2CCC2)nc1` [Example 21, 6-[(R)-1-acetylpyrrolidin-2-yl]-5-[6-(azetidin-1-ylcarbonyl)pyridin-3-yloxy]-2-[5-(1,1-dimethylhydroxymethyl)pyrazin-2-yl]-1H-indole] showed a solubility at 60 min [1] greater than 170 µM.

For `COCc1ccc(Oc2cc3cc(-c4ccccn4)[nH]c3cc2[C@H]2CCCN2C(C)=O)cn1` [Example 18, 6-[(R)-1-acetylpyrrolidin-2-yl]-5-(6-methoxymethylpyridin-3-yloxy)-2-(pyridin-2-yl)-1H-indole], the solubility at 60 min [1] was 133 µM (≈ 58.8 µg/mL).

`CC(=O)N1CCC[C@@H]1c1cc2[nH]c(-c3ccccn3)cc2cc1Oc1ccc(OCCO)nc1` [Example 11, 6-[(R)-1-acetylpyrrolidin-2-yl]-5-[6-(2-hydroxyethoxy)pyridin-3-yloxy]-2-(pyridin-2-yl)-1H-indole] showed a solubility at 60 min [1] of 48.6 µM (≈ 22.3 µg/mL).

`CC(=O)N1CCC[C@@H]1c1cc2[nH]c(-c3ccc(C(C)(C)O)cn3)cc2cc1Oc1ccc(C(=O)N2CCC2)nc1` [Example 24, 6-[(R)-1-acetylpyrrolidin-2-yl]-5-[6-(azetidin-1-ylcarbonyl)pyridin-3-yloxy]-2-[5-(1,1-dimethylhydroxymethyl)pyridin-2-yl]-1H-indole] showed a solubility at 60 min [1] of 142 µM (≈ 76.6 µg/mL).

In the case of `CC(=O)N1CCC[C@@H]1c1cc2[nH]c(-c3cnccn3)cc2cc1Oc1ccc(CO)nc1` [Example 6, 6-[(R)-1-acetylpyrrolidin-2-yl]-5-(6-hydroxymethylpyridin-3-yloxy)-2-(pyrazin-2-yl)-1H-indole], the solubility at 60 min [1] was greater than 170 µM.

For `CC(=O)N1CCC[C@@H]1c1cc2[nH]c(-c3ccc(C(C)(C)O)cn3)cc2cc1Oc1ccc(CO)nc1` [Example 8, 6-[(R)-1-acetylpyrrolidin-2-yl]-2-[5-(1,1-dimethylhydroxymethyl)pyridin-2-yl]-5-(6-hydroxymethylpyridin-3-yloxy)-1H-indole], the solubility at 60 min [1] was greater than 170 µM.
